Reference: the NIST ThermoML archive (doi:10.1016/j.jct.2009.02.002)
Numbers after ± are expanded uncertainties.

Details: 101.33 kPa, Liquid; for viscosity: Capillary tube (Ostwald / Ubbelohde) method; for mass density: Vibrating tube method
[1] = 298.15 K, automatically measured using an Anton Paar DSA 5000 instrument
[2] = 303.15 K, automatically measured using an Anton Paar DSA 5000 instrument
[3] = 308.15 K, automatically measured using an Anton Paar DSA 5000 instrument

| Structure (SMILES) | viscosity (298.15 K) [mPa·s] | mass density (298.15 K) [kg/m3] | speed of sound [1] [m/s] | viscosity (303.15 K) [mPa·s] | mass density (303.15 K) [kg/m3] | speed of sound [2] [m/s] | viscosity (308.15 K) [mPa·s] | mass density (308.15 K) [kg/m3] | speed of sound [3] [m/s] | speed of sound (298.15 K, Pulse-echo method) [m/s] | speed of sound (303.15 K, Pulse-echo method) [m/s] | speed of sound (308.15 K, Pulse-echo method) [m/s] |
| --- | --- | --- | --- | --- | --- | --- | --- | --- | --- | --- | --- | --- |
| CC(C)CCCC(C)CCCC(C)CCCCC(C)CCCC(C)CCCC(C)C (configuration not stated) [2,6,10,15,19,23-hexamethyltetracosane] | 28.26 ± 0.14 | 805.122 ± 0.14 | 1381.9 ± 0.5 | 22.09 ± 0.11 | 801.912 ± 0.14 | 1364.1 ± 0.5 | 17.77 ± 0.09 | 798.709 ± 0.14 | 1346.5 ± 0.5 |  |  |  |
| CC(C)CO [2-methyl-1-propanol] | 3.404 ± 0.021 | 798.52 ± 0.14 | 1189.6 ± 0.5 | 2.695 ± 0.017 | 794.6 ± 0.14 | 1172.9 ± 0.5 | 2.188 ± 0.014 | 790.63 ± 0.15 | 1156.2 ± 0.5 |  |  |  |
| CCCCCCCCCCCCCCCC [hexadecane] | 3.041 ± 0.019 | 770.456 ± 0.15 |  | 2.706 ± 0.017 | 766.981 ± 0.15 |  | 2.409 ± 0.015 | 763.52 ± 0.15 |  | 1338.6 ± 0.8 | 1320 ± 0.8 | 1301.7 ± 0.8 |
